How the values were obtained:
[1] = molecular target: 5HT1a (Homo sapiens, UniProt P08908); test: Binding at cloned human 5HT1a receptor
[2] = molecular target: T1, D3 (Homo sapiens, UniProt P35462); test: Binding at cloned human dopamine D3 receptor
T1 construct: expressed in transfected cells; host or cells: COS-7

[3] = test system: NPY-induced feeding behavior; test: NPY-induced food intake in satiated rats; type: in vivo, rat; settings: compound 30 mg/kg i.p. then 300 pmole NPY i.c.v., 4 hours, mean ± S.E.M.
Description: For these determinations food intake may be measured in normal satiated rats after intracerebroventricular application (i.c.v.) of NPY in the presence or absence of the test compound. Male Sprague Dawley rats (Ciba-Geigy AG, Sisseln, Switzerland) weighing between 180 g and 220 g are used for all experiments. The rats are individually housed in stainless steel cages and maintained on an 11:13 h light-dark cycle (lights off at 18:00 h) at a controlled temperature of 21-23° C. at all times. Water and food (NAFAG lab chow pellets NAFAG, Gossau, Switzerland) are available ad libidum.
Rats under pentobarbital anesthesia are stereotaxically implanted with a stainless steel guide cannula targeted at the right lateral ventricle. Stereotaxic coordinates, with the incisor bar set −2.0 mm below interaural line, are: −0.8 mm anterior and +1.3 mm lateral to bregma. The guide cannula is placed on the dura. Injection cannulas extend the guide cannulas −3.8 mm ventrally to the skull surface. Animals are allowed at least 4 days of recovery postoperatively before being used in the experiments. Cannula placement is checked postoperatively by testing all rats for their drinking response to a 50. ng intracerebroventricular (i.c.v.) injection of angiotensin II. Only rats which drink at least 2.5 ml of water within 30 min. after angiotensin II injection are used in the feeding studies.
All injections are made in the morning 2 hours after light onset. Peptides are injected in artificial cerebrospinal fluid (ACSF) in a volume of 5 μl. ACSF contains: NaCl 124 mM, KCl 3.75 mM, CaCl2 2.5 mM, MgSO4 2.0 mM, KH2PO4 0.22 mM, NaHCO3 26 mM and glucose 10 mM. Porcine-NPY (p-NPY) are dissolved in artificial cerebrospinal fluid (ACS). For i.c.v. injection the test compounds are preferably dissolved in DMSO/water (10%, v/v). The vehicle used for intraperitoneal (i.p.), subcutaneous (s.c.) or oral (p.o.) delivery of compounds is preferably water, physiological saline or DMSO/water (10% v/v), or cremophor/water (20% v/v), respectively.
Animals which are treated with both test compounds and porcine-NPY are treated first with the test compound.
Food intake may be measured by placing preweighed pellets into the cages at the time of NPY injection. Pellets are then removed from the cage subsequently at each selected time point and replaced with a new set of preweighed pellets. The food intake of animals treated with test compound may be calculated as a percentage of the food intake of control animals i.e., animals treated with vehicle. Alternatively, food intake for each group of animals subjected to a particular experimental condition may be expressed as the mean±S.E.M. Statistical analysis is performed by analysis of variance using the Student-Newman-Keuls test.
Food intake is reported as the mean±S.E.M. intake for a group of animals.

T1 sequence (P35462 whole entry): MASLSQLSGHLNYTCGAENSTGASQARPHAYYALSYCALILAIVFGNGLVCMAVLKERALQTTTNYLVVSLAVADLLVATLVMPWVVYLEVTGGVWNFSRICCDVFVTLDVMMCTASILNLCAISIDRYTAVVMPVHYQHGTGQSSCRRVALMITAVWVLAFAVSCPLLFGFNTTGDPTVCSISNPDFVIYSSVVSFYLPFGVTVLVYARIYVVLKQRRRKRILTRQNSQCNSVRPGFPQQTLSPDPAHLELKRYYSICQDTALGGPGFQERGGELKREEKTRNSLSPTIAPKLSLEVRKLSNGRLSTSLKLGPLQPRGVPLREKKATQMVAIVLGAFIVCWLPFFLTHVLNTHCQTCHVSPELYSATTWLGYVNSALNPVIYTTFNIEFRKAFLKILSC
5HT1a, sequence (P08908 whole entry): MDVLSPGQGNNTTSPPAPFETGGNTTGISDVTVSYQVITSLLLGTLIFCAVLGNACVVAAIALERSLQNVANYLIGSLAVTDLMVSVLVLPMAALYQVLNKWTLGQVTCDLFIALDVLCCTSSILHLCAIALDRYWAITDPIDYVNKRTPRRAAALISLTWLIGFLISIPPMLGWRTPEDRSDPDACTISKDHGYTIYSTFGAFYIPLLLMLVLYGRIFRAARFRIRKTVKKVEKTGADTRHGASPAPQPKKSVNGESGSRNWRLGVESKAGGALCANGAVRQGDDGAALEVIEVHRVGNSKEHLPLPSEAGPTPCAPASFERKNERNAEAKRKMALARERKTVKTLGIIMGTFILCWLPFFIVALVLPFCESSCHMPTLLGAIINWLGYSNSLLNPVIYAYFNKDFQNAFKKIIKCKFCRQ

| Structure (SMILES) | pKi 5HT1a [1] | pKi D3 [2] | Food intake, NPY + compound [3] [g] |
| --- | --- | --- | --- |
| Cl.O=S(=O)(NC[C@H]1CC[C@H](CNCC2CCc3ccccc3C2)CC1)c1cccc2ccccc12 (mixture of isomers) [Compound 19] | 5.54 | 6.69 | 1.5 ± 0.6 |
| Cl.O=[N+]([O-])c1ccccc1S(=O)(=O)NC[C@H]1CC[C@H](CNCC2CCc3ccccc3C2)CC1 (mixture of isomers) [Compound 20] | – | 6.35 | – |
| Cl.Cl.Nc1ccccc1S(=O)(=O)NC[C@H]1CC[C@H](CNCC2CCc3ccccc3C2)CC1 (mixture of isomers) [Compound 22] | 6.56 | – | – |

Reference: US6713265B1 (Synaptic Pharmaceutical Corporation, priority 1999, dated 2004)
